Test results taken from patent EP0013144A1, “Substituted diphenylamine derivatives, compositions and herbicidal uses thereof, and processes for their preparation” (ICI AUSTRALIA LIMITED, priority 1978, dated 1980).

Assays:
Type in all cases: in vivo
Ipomea purpurea [1] = assay: Pre-emergence herbicidal test, fibre trays (Example 33); conditions: 2.0 kg/ha, after 21 days
Procedure, shortened: (§1)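 Two spray tests: pots of young plants (post-emergence, 14-day assessment) and fibre trays of freshly sown seed with sprayed soil surface topped by a thin fresh soil layer (pre-emergence, 21-day assessment). Injury was graded 0–5 against untreated controls, 5 meaning complete kill.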

Cotton [2] = assay: as above; conditions: 2.0 kg/ha, after 21 days
Procedure, shortened: as §1

Rape = assay: as above; conditions: 2.0 kg/ha, after 21 days
Procedure, shortened: as §1

Senecio vulgaris = assay: as above; conditions: 2.0 kg/ha, after 21 days
Procedure, shortened: as §1

Sugar beet [3] = assay: as above; conditions: 2.0 kg/ha, after 21 days
Procedure, shortened: as §1

Winter wheat = assay: as above; conditions: 2.0 kg/ha, after 21 days
Procedure, shortened: as §1

Soy bean [4] = assay: as above; conditions: 2.0 kg/ha, after 21 days
Procedure, shortened: as §1

Maize = assay: as above; set-up: key: 0 = 0-20% damage, 5 = complete kill, vs untreated control; conditions: 2.0 kg/ha, after 21 days
Procedure, shortened: as §1

Ipomea purpurea [5] = assay: Post-emergence herbicidal test, young pot plants (Example 33); conditions: 2.0 kg/ha, after 14 days
Procedure, shortened: as §1

Amaranthus retroflexus = assay: as above; conditions: 2.0 kg/ha, after 14 days
Procedure, shortened: as §1

Cotton [6] = assay: as above; conditions: 2.0 kg/ha, after 14 days
Procedure, shortened: as §1

Sugar beet [7] = assay: as above; conditions: 2.0 kg/ha, after 14 days
Procedure, shortened: as §1

Chenopodium album = assay: as above; conditions: 2.0 kg/ha, after 14 days
Procedure, shortened: as §1

Soy bean [8] = assay: as above; conditions: 2.0 kg/ha, after 14 days
Procedure, shortened: as §1

Ryegrass [9] = assay: Pre-emergence herbicidal activity (Example 31); set-up: key: 0-3 scale: 0 = 0-25% damage, 3 = 75-99% kill, 3+ = 100% kill; conditions: after three weeks
Procedure, shortened: (§2)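 Seeded soil boxes (seeds at 2 cm) were sprayed with water-diluted emulsifiable concentrates or milled suspensions, then held under glass. Three weeks later, visual scoring: 0 = 0–25% damage, 3 = 75–99% kill, 3+ = complete kill; unsprayed duplicate boxes as reference.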

Rice = assay: Pre-emergence herbicidal test, fibre trays (Example 33); set-up: key: 0 is 0 to 20% damage; 5 is complete kill; conditions: 2.0 kg/ha, after 21 days
Procedure, shortened: as §1

Wheat = assay: Post-emergence herbicidal activity (Example 32); set-up: key: 0-3 scale: 0 = 0-25% damage, 3 = 75-99% kill, 3+ = 100% kill; conditions: 3 weeks after spraying
Procedure, shortened: (§3)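 Compounds applied as diluted emulsifiable concentrates (toluene with nonylphenol ethoxylate/calcium dodecylbenzene sulfonate) or ball-milled aqueous suspensions, sprayed onto glasshouse plants about 10–12.5 cm tall. Damage assessed visually 3 weeks later versus untreated controls on a 0–3 scale (0 = 0–25% damage, 3 = 75–99% kill, 3+ = 100% kill).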

Ryegrass [10] = assay: Post-emergence herbicidal activity (Example 32); conditions: 3 weeks after spraying
Procedure, shortened: as §3

Japanese millet = assay: Pre-emergence herbicidal activity (Example 31); conditions: after three weeks
Procedure, shortened: as §2

Mustard = assay: Pre-emergence herbicidal activity (Example 31); conditions: after three weeks
Procedure, shortened: as §2

Ipomea = assay: Pre-emergence herbicidal activity (Example 31); conditions: after three weeks
Procedure, shortened: as §2

Sunflower = assay: Pre-emergence herbicidal activity (Example 31); conditions: after three weeks
Procedure, shortened: as §2

| Compound | herbicidal damage, Ip (Ipomea purpurea [1]) | herbicidal damage, Ct (Cotton [2]) | herbicidal damage, Rp (Rape) | herbicidal damage, Sn (Senecio vulgaris) | herbicidal damage, Sb (Sugar beet [3]) | herbicidal damage, Ww (Winter wheat) | herbicidal damage, Sy (Soy bean [4]) | herbicidal damage, Mz (Maize) | damage to test plants, Ip (Ipomea purpurea [5]) | damage to test plants, Am (Amaranthus retroflexus) | damage to test plants, Ct (Cotton [6]) | damage to test plants, Sb (Sugar beet [7]) | damage to test plants, Ca (Chenopodium album) | damage to test plants, Sy (Soy bean [8]) | damage to plants, Rg (Ryegrass [9]; 1 kg/ha) | damage to plants, Rg (Ryegrass [9]; 5 kg/ha) | herbicidal damage, Rc (Rice) | damage to plants, Wh (Wheat; 1 kg/ha) | damage to plants, Wh (Wheat; 5 kg/ha) | damage to plants, Rg (Ryegrass [10]; 1 kg/ha) | other results |
| --- | --- | --- | --- | --- | --- | --- | --- | --- | --- | --- | --- | --- | --- | --- | --- | --- | --- | --- | --- | --- | --- |
| COC(=O)C(C)Oc1ccc(N(C)c2ccc(Cl)cc2Cl)cc1 (stereo not shown) [Compound 1, Methyl 2-[4-(2,4-dichloro-N-methylanilino)phenoxy]-propionate] | 0 (0 is 0 to 20% damage) | 0 (0 is 0 to 20% damage) | 2 | 0 (0 is 0 to 20% damage) | 0 (0 is 0 to 20% damage) | 0 (0 is 0 to 20% damage) | 2 | 0 (0 is 0 to 20% damage) | 0 (0 is 0 to 20% damage) | 2 | 1 | 3 | 3 | 1 | 1 | 3 (3 represents 75 to 99% kill) | 0 (0 is 0 to 20% damage) | 0 (0 represents 0 to 25% damage) | 1 | 3+ (3+ represents 100% kill) | damage to plants, Rg (Ryegrass [10]; 5 kg/ha): 3+ (3+ represents 100% kill); damage to plants, Jm (Japanese millet; 1 kg/ha): 0 (0 represents from 0 to 25% damage); damage to plants, Jm (Japanese millet; 5 kg/ha): 0 (0 represents from 0 to 25% damage); damage to plants, Ms (Mustard; 1 kg/ha): 0 (0 represents from 0 to 25% damage); damage to plants, Ms (Mustard; 5 kg/ha): 0 (0 represents from 0 to 25% damage); damage to plants, Ip (Ipomea; 1 kg/ha): 0 (0 represents from 0 to 25% damage); damage to plants, Ip (Ipomea; 5 kg/ha): 0 (0 represents from 0 to 25% damage); damage to plants, Sf (Sunflower; 1 kg/ha): 0 (0 represents from 0 to 25% damage); damage to plants, Sf (Sunflower; 5 kg/ha): 0 (0 represents from 0 to 25% damage) |
| COC(=O)C(C)Oc1ccc(N(C)c2ccc(Br)cc2[N+](=O)[O-])cc1 (stereo not shown) [Compound 30] | 0 (0 is 0 to 20% damage) | 0 (0 is 0 to 20% damage) | 0 (0 is 0 to 20% damage) | 2 | 0 (0 is 0 to 20% damage) | 1 | 0 (0 is 0 to 20% damage) | 2 | 0 (0 is 0 to 20% damage) | 0 (0 is 0 to 20% damage) | 0 (0 is 0 to 20% damage) | 0 (0 is 0 to 20% damage) | 0 (0 is 0 to 20% damage) | 2 | 1 | 3+ (3+ represents 100% kill) | 5 | 2 | 3+ (3+ represents 100% kill) | 3+ (3+ represents 100% kill) | damage to plants, Rg (Ryegrass [10]; 5 kg/ha): 3+ (3+ represents 100% kill); damage to plants, Jm (Japanese millet; 1 kg/ha): 1; damage to plants, Jm (Japanese millet; 5 kg/ha): 3 (3 represents 75 to 99% kill); damage to plants, Ms (Mustard; 1 kg/ha): 1; damage to plants, Ms (Mustard; 5 kg/ha): 2; damage to plants, Ip (Ipomea; 1 kg/ha): 0 (0 represents from 0 to 25% damage); damage to plants, Ip (Ipomea; 5 kg/ha): 0 (0 represents from 0 to 25% damage); damage to plants, Sf (Sunflower; 1 kg/ha): 0 (0 represents from 0 to 25% damage); damage to plants, Sf (Sunflower; 5 kg/ha): 0 (0 represents from 0 to 25% damage) |
